In one assay the test system is PMP22 mRNA. Put plainly: PMP22 mRNA level by quantitative RT-PCR after drug stimulation of rat Schwann cell primary culture. The assay is classed as cell-based. More on the design: key: +: significantly decreases PMP22 levels compared to control. The note with it: rat primary Schwann cells, drug incubation 24 hrs. The procedure: After cells being platted in 12 well-dishes, the medium is replaced by a defined medium consisting in a mix of DMEM-F12 (Invitrogen #21331020) complemented by 1% of N2 supplement (Invitrogen #17502), 1% L-Glutamine (Invitrogen #25030024) 2.5% FBS (Sciencell #0025), 0.02 μg/ml of corticosterone (Sigma #C2505), 4 μM Forskolin and 50 μg/ml of gentamycin. Growth factors are not added to this medium, to promote SC differentiation
24 hours later, the medium is replaced by a defined medium (DMEM-F12) complemented with 1% Insulin-Transferrin-Selenium-X (ITS, Invitrogen #51300), 16 μg/ml of Putrescine (Sigma #P5780), 0.02 μg/ml of corticosterone and 50 μg/ml of gentamicin. At this step, neither progesterone nor forskolin are present in the medium.
One day later, Schwann cells are stimulated by combinations of drugs or drugs alone during 24 hrs (3 wells/condition). The preparation of each compound is performed just prior to its addition to the cell culture medium.
Drugs are added to a defined medium composed of DMEM-F12, with 1% Insulin-Transferrin-Selenium-X (ITS, Invitrogen #51300), 16 μg/ml of Putrescine, 0.02 μg/ml of corticosterone, 10 nM Progesterone and 50 μg/ml of gentamicin. The absence of Forskolin during drug stimulation avoids adenylate cyclase saturation.
Quantitative RT-PCR is used to compare the levels of PMP22 mRNA after drug stimulation, relative with housekeeping Ribosomal L13A mRNA in rat Schwann cell primary culture.
After rinsing with cold sterilized PBS, total RNAs from each cell sample are extracted and purified from SC using the Qiagen RNeasy micro kit (Qiagen #74004). Nucleic acids are quantified by Nanodrop spectrophotometer using 1 μl of RNA sample. The RNA integrity is determined through a BioAnalyzer (Agilent) apparatus.
RNAs are reverse-transcribed into cDNA according to standard protocol. cDNA templates for PCR amplification are synthesized from 200 ng of total RNA using SuperScript II reverse-transcriptase (Invitrogen #18064-014) for 60 min at 42° C. in the presence of oligo(dT), in a final volume of 20 μl.
cDNAs are subjected to PCR amplification using the ? LightCycler® 480 ? system (Roche Molecular Systems Inc.) Each cDNA are diluted five times before being used for PCR amplification. 2.5 μl of this cDNAs enters the PCR reaction solution (final volume of 10 μl). Preliminary experiments ensured that quantitation was done in the exponential phase of the amplification process for both sequences and that expression of the reference gene was uniform in the different culture conditions.
PCR reaction is performed by amplification of 500 nM of forward primer of rat PMP22 (NM_017037), 5-GGAAACGCGAATGAGGC-3 (SEQ ID NO: 1), and 500 nM of reverse primer 5-GTTCTGTTTGGTTTGGCTT-3 (SEQ ID NO: 2) (amplification of 148-bp). A 152-bp fragment of the RPL13A ribosomal (NM_173340) RNA is amplified in parallel in separate reactions for normalization of the results by using 500 nM of forward primer 5-CTGCCCTCAAGGTTGTG-3 (SEQ ID NO: 3), and 500 nM of reverse primer 5-[…]-3 (SEQ ID NO: 4).
We used FRET chemistry to perform RT-Q-PCR analysis. FRET probes are composed of 0.3 μM of Pmp22-FL-5-[…] (SEQ ID NO: 5) or Rpl13A-FL-5-TCGGGTGGAAGTACCAGCC (SEQ ID NO: 6), labelled at their 3′ end with a donor fluorophore dye (Fluorescein). 0.15 μM Red640 probes are defined as follows: Pmp22-red-5′-[…]- (SEQ ID NO: 7) or Rpl13A-red-5′-[…] (SEQ ID NO: 8), labelled at their 5′ end with an acceptor fluorophore dye (Rhodamine Red 640).
Each PCR reaction contained 2.5 μl cDNA template in a final volume of 10 μl of master mix kit (Roche #04-887301001).
The following PCR conditions are used: 10 sec at 95° C., 10 sec at 63° C. and 12 sec at 72° C. and 30 sec at 40° C. (Forty amplification cycles). The relative levels of PMP22 gene expression is measured by determining the ratio between the products generated from the target gene PMP22 and the endogenous internal standard RPL13A. […]

The test system of the next assay is PMP22 protein. Put plainly: PMP22 protein expression analysis by flow cytometry (FACS) in Schwann cells. The assay is classed as cell-based, rat. More on the design: key to Protein (PMP22 expression decrease): +: significantly decreases PMP22 levels compared to control. The conditions noted are these: rat primary Schwann cells, FACS, 24 hrs. As to the method:
One day later, Schwann cells are stimulated by combinations of drugs or drugs alone during 24 hrs (3 wells/condition). The preparation of each compound is performed just prior to its addition to the cell culture medium. Drugs are added to a defined medium composed of DMEM-F12, with 1% Insulin-Transferrin-Selenium-X (ITS, Invitrogen #51300), 16 μg/ml of Putrescine, 0.02 μg/ml of corticosterone, 10 nM Progesterone and 50 μg/ml of gentamicin. The absence of Forskolin during drug stimulation avoids adenylate cyclase saturation. 8 hrs, 24 hrs and 48 hrs after drugs incubation, supernatants are recovered, centrifuged and frozen. SC are detached with trypsin-EDTA. As soon as the majority of cells are in suspension, the trypsin is neutralised using DMEM with 10% FCS. Supernatants with cells are recovered and centrifuged. The pellets of cells are transferred in micro tubes, washed in PBS once and fixed with a specific solution (AbCys #Reagent A BUF09B). 10 minutes later, cells are rinsed once with PBS and kept at 4° C. Five days after cell fixation, all cell preparations with different incubation times are labelled using the following protocol. […] Cells are then centrifuged at 7000 rpm for 5 minutes and cell pellets are rinsed once in PBS. A secondary antibody is added, coupled to Alexa Fluor 488 (goat anti-rabbit IgG, Molecular Probes #A11008, 1/100), for one hour at room temperature. Cells are then centrifuged at 7000 rpm for 5 minutes and cell pellets are rinsed once in PBS. The labelling is increased adding a tertiary antibody coupled to Alexa Fluor 488 (chicken anti-goat IgG, Molecular Probes #A21467, 1/100) for one hour incubation, at room temperature. Cells are then rinsed once in PBS. Control without any antibody (unlabelled cells) is performed to determine the level of autofluorescence and adapted the sensitivity of the photomultiplicators. Control with both secondary and tertiary antibodies but without primary antibody, is performed to assess non specific binding of antibodies. Data acquisition and analysis are performed with a FACS Array cytometer and FACS Array software (Becton Dickinson) on 5000 cells. Forward Scatter (FSC) correlated with cell volume (size) and Side Scatter (SSC) depending on inner complexity of cells (granularity) are analysed. For expression of PMP22, analysis is performed within the total cells and percent of positive cells is calculated. Positive cells are cells with fluorescence intensity higher than the control with secondary antibody. We tested the ability of some drugs to inhibit PMP22 protein expression (FACS analysis). […] The results of the action of some individual drugs on the protein level of PMP22 are also shown on table 1 above.
In general terms: Flow cytometry measures light scatter and fluorescence of single cells or particles in a stream.

A further assay deals with PMP22. The note with it: transgenic rodent models with over expression of PMP22; cited from earlier work.

As to `NCC(CC(=O)O)c1ccc(Cl)cc1` (stereo not drawn) [Baclofen], in the assay with PMP22 mRNA, the “mRNA (PMP22 expression decrease)” value is listed as “+”.
`O=C(O)Cc1ccccc1Nc1c(Cl)cccc1Cl` [Diclofenac]: the “mRNA (PMP22 expression decrease)” value in the assay on PMP22 mRNA was “+”. The “Protein (PMP22 expression decrease)” value in the assay on PMP22 protein is on record as “+”.
As to `CCN(CC)C(=S)SSC(=S)N(CC)CC` [Disulfiram], the “mRNA (PMP22 expression decrease)” value in the assay on PMP22 mRNA is on record as “+”.
For `C[C@]12CC[C@@H]3c4ccc(O)cc4CC[C@H]3[C@@H]1CC[C@@H]2O` [Estradiol-b, Estradiol], the “mRNA (PMP22 expression decrease)” value in the assay on PMP22 mRNA was “+”.
In the case of `CC(C)OC(=O)C(C)(C)Oc1ccc(C(=O)c2ccc(Cl)cc2)cc1` [Fenofibrate], the “mRNA (PMP22 expression decrease)” value with PMP22 mRNA was “+”.
With `CC(C(=O)O)c1ccc(-c2ccccc2)c(F)c1` (stereo not drawn) [Flurbiprofen], in the assay with PMP22 mRNA, the “mRNA (PMP22 expression decrease)” value is listed as “+”. For the same compound, the “Protein (PMP22 expression decrease)” value in the assay on PMP22 protein was “+”.
Regarding `O=C(CCCN1CCC(O)(c2ccc(Cl)cc2)CC1)c1ccc(F)cc1` [Haloperidol], the “mRNA (PMP22 expression decrease)” value in the assay with PMP22 mRNA is reported as “+”.
`COc1ccc2c(c1)c(CC(=O)O)c(C)n2C(=O)c1ccc(Cl)cc1` [Indomethacin]: the “mRNA (PMP22 expression decrease)” value in the assay with PMP22 mRNA is listed as “+”. The “Protein (PMP22 expression decrease)” value in the assay on PMP22 protein is recorded as “+”.
For `CC(C)NCC(O)c1ccc(O)c(O)c1` (stereo not drawn) [Isoproterenol], the “mRNA (PMP22 expression decrease)” value with PMP22 mRNA is listed as “+”.
For `CC(C(=O)O)c1cccc(C(=O)c2ccccc2)c1` (stereo not drawn) [Ketoprofen], the “mRNA (PMP22 expression decrease)” value with PMP22 mRNA was “+”. In the assay on PMP22 protein, the “Protein (PMP22 expression decrease)” value is reported as “+”.
In the case of `Cc1cnc(NC(=O)C2=C(O)c3ccccc3S(=O)(=O)N2C)s1` [Meloxicam], the “mRNA (PMP22 expression decrease)” value in the assay on PMP22 mRNA is given as “+”. Further, the “Protein (PMP22 expression decrease)” value in the assay with PMP22 protein was “+”.
As for `CC#C[C@]1(O)CC[C@H]2[C@@H]3CCC4=CC(=O)CCC4=C3[C@@H](c3ccc(N(C)C)cc3)C[C@@]21C` [Mifepristone], the “mRNA (PMP22 expression decrease)” value in the assay on PMP22 mRNA was “+”.
For `CC(C)(O)c1ccccc1CC[C@@H](SCC1(CC(=O)O)CC1)c1cccc(/C=C/c2ccc3ccc(Cl)cc3n2)c1` [Montelukast], the “mRNA (PMP22 expression decrease)” value in the assay with PMP22 mRNA is recorded as “+”.
For the compound `O=C1CC[C@@]2(O)[C@H]3Cc4ccc(O)c5c4[C@@]2(CCN3CC2CC2)[C@H]1O5` [Naltrexone], the “mRNA (PMP22 expression decrease)” value in the assay with PMP22 mRNA is “+”.
Consider `CCC(C)(C)C(=O)O[C@H]1C[C@@H](C)C=C2C=C[C@H](C)[C@H](CC[C@@H]3C[C@@H](O)CC(=O)O3)[C@H]21` [Simvastatin], for which the “mRNA (PMP22 expression decrease)” value in the assay with PMP22 mRNA is “+”.
In the case of `OC[C@@H](O)[C@@H](O)[C@H](O)[C@@H](O)CO` [Sorbitol, D-Sorbitol], in the assay with PMP22 mRNA, the “mRNA (PMP22 expression decrease)” value was “+”.
As for `C[C@]12CC[C@H]3[C@@H](CC[C@@]45O[C@@H]4C(O)=C(C#N)C[C@]35C)[C@@H]1CC[C@@H]2O` [Trilostane], the “mRNA (PMP22 expression decrease)” value in the assay with PMP22 mRNA is listed as “+”.
Take `O=C1O[C@H]([C@@H](O)CO)C(O)=C1O` [ascorbic acid]: the “PMP22 expression in the transgenic animals” value in the assay on PMP22 was “decreased this expression”.
Regarding `CN(C)c1ccc([C@H]2C[C@]3(C)[C@@H](CC[C@]3(O)CCCO)[C@@H]3CCC4=CC(=O)CCC4=C32)cc1` [onapristone], the “PMP22 expression in the transgenic animals” value in the assay with PMP22 was “decreased this expression”.

The record behind these values is US8992891B2, “Therapeutic approaches for treating CMT and related disorders” (Pharnext, priority 2007, dated 2015).
